From patent publication US10689381B2 (priority 2017, dated 2020)
Read-outs that look alike come from different tables or passages of the source.

Experiments:
[1] = test system: HCT116; experiment: cells; assay type: cell-based, human; conditions: for IC50: read-out: IC50 HCT116; for potency relative to vinblastine (more potent): vinblastine-sensitive cell lines
Outline: (§1)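 Compound exposure ran 72 h at six concentrations (0–1000 nM or 0–10000 nM, duplicate) on cells plated at 30,000 cells/mL in 10% FBS DMEM. A closing 37 °C incubation took 15 min (HCT116) or 5 min (L1210).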

[2] = test system: L1210; experiment: cells; assay type: cell-based, mouse
Outline: as §1

For `CC[C@]1(NC(=O)c2ccoc2)C[C@H]2CN(CCc3c([nH]c4ccccc34)[C@@](C(=O)OC)(c3cc4c(cc3OC)N(C)[C@H]3[C@@](O)(C(=O)OC)[C@H](OC(C)=O)[C@]5(CC)C=CCN6CC[C@]43[C@@H]65)C2)C1` [Compound 133], the “activity relative to 20′ benzamide Compound 24 (better)” value [1] was “roughly 2 fold”, the IC50 ([1]; Table 5) was 0.6 nM and the “potency relative to vinblastine (more potent)” value [1] was 10 fold. The IC50 ([2]; Table 5) was 0.7 nM.
Work on `CCC1(NC(=O)c2ccco2)CC2CN(CCc3c([nH]c4ccccc34)C(C(=O)OC)(c3cc4c(cc3OC)N(C)C3C(O)(C(=O)OC)C(OC(C)=O)C5(CC)C=CCN6CCC43C65)C2)C1` (centres unmarked) [Compound 134] yielded an IC50 ([1]; Table 5) of 0.7 nM and an IC50 ([2]; Table 5) of 0.7 nM.
For `CCC1(NC(=O)c2ccsc2)CC2CN(CCc3c([nH]c4ccccc34)C(C(=O)OC)(c3cc4c(cc3OC)N(C)C3C(O)(C(=O)OC)C(OC(C)=O)C5(CC)C=CCN6CCC43C65)C2)C1` (centres unmarked) [Compound 135], the IC50 ([1]; Table 5) was 0.7 nM and the IC50 ([2]; Table 5) was 0.5 nM.
In the case of `CCC1(NC(=O)c2cccs2)CC2CN(CCc3c([nH]c4ccccc34)C(C(=O)OC)(c3cc4c(cc3OC)N(C)C3C(O)(C(=O)OC)C(OC(C)=O)C5(CC)C=CCN6CCC43C65)C2)C1` (centres unmarked) [Compound 136], the “activity relative to 20′ benzamide Compound 24 (better)” value [1] is reported as “roughly 2 fold”, the IC50 ([1]; Table 5) is reported as 0.6 nM and the “potency relative to vinblastine (more potent)” value [1] is reported as 10 fold. The IC50 ([2]; Table 5) was 0.6 nM.
Molecule `CC[C@]1(NC(=O)c2cocn2)C[C@H]2CN(CCc3c([nH]c4ccccc34)[C@@](C(=O)OC)(c3cc4c(cc3OC)N(C)[C@H]3[C@@](O)(C(=O)OC)[C@H](OC(C)=O)[C@]5(CC)C=CCN6CC[C@]43[C@@H]65)C2)C1` [Compound 137] has an IC50 ([1]; Table 5) of 4 nM and an IC50 ([2]; Table 5) of 4.5 nM.
In the case of `CC[C@]1(NC(=O)c2cnco2)C[C@H]2CN(CCc3c([nH]c4ccccc34)[C@@](C(=O)OC)(c3cc4c(cc3OC)N(C)[C@H]3[C@@](O)(C(=O)OC)[C@H](OC(C)=O)[C@]5(CC)C=CCN6CC[C@]43[C@@H]65)C2)C1` [Compound 138], the IC50 ([1]; Table 5) is reported as 3.5 nM and the IC50 ([2]; Table 5) is reported as 3.9 nM.
With `CC[C@]1(NC(=O)c2cscn2)C[C@H]2CN(CCc3c([nH]c4ccccc34)[C@@](C(=O)OC)(c3cc4c(cc3OC)N(C)[C@H]3[C@@](O)(C(=O)OC)[C@H](OC(C)=O)[C@]5(CC)C=CCN6CC[C@]43[C@@H]65)C2)C1` [Compound 139] the IC50 ([1]; Table 5) was 6.3 nM and the IC50 ([2]; Table 5) was 5.6 nM.
For `CCC1(NC(=O)c2cncs2)CC2CN(CCc3c([nH]c4ccccc34)C(C(=O)OC)(c3cc4c(cc3OC)N(C)C3C(O)(C(=O)OC)C(OC(C)=O)C5(CC)C=CCN6CCC43C65)C2)C1` (centres unmarked) [Compound 140], the IC50 ([1]; Table 5) was 0.6 nM and the IC50 ([2]; Table 5) was 1.8 nM.
With `CCC1(NC(=O)c2cncn2C)CC2CN(CCc3c([nH]c4ccccc34)C(C(=O)OC)(c3cc4c(cc3OC)N(C)C3C(O)(C(=O)OC)C(OC(C)=O)C5(CC)C=CCN6CCC43C65)C2)C1` (centres unmarked) [Compound 141] the IC50 ([1]; Table 5) was 2.2 nM and the IC50 ([2]; Table 5) was 4 nM.
With `CCC1(NC(=O)c2ccon2)CC2CN(CCc3c([nH]c4ccccc34)C(C(=O)OC)(c3cc4c(cc3OC)N(C)C3C(O)(C(=O)OC)C(OC(C)=O)C5(CC)C=CCN6CCC43C65)C2)C1` (centres unmarked) [Compound 143] the IC50 ([1]; Table 5) was 7 nM and the IC50 ([2]; Table 5) was 4.5 nM.
Molecule `CCC1(NC(=O)C2CCOCC2)CC2CN(CCc3c([nH]c4ccccc34)C(C(=O)OC)(c3cc4c(cc3OC)N(C)C3C(O)(C(=O)OC)C(OC(C)=O)C5(CC)C=CCN6CCC43C65)C2)C1` (centres unmarked) [Compound 144] has an IC50 ([1]; Table 5) of 35 nM and an IC50 ([2]; Table 5) of 70 nM.
`CCC1(NC(=O)C2CCSCC2)CC2CN(CCc3c([nH]c4ccccc34)C(C(=O)OC)(c3cc4c(cc3OC)N(C)C3C(O)(C(=O)OC)C(OC(C)=O)C5(CC)C=CCN6CCC43C65)C2)C1` (centres unmarked) [Compound 145] gave an IC50 ([1]; Table 5) of 450 nM and an IC50 ([2]; Table 5) of 460 nM.
Molecule `CCC1(NC(=O)C2CCN(C(=O)OC(C)(C)C)CC2)CC2CN(CCc3c([nH]c4ccccc34)C(C(=O)OC)(c3cc4c(cc3OC)N(C)C3C(O)(C(=O)OC)C(OC(C)=O)C5(CC)C=CCN6CCC43C65)C2)C1` (centres unmarked) [Compound 147] has an IC50 ([1]; Table 5) of 45 nM and an IC50 ([2]; Table 5) of 50 nM.
In the case of `CCC1(NC(=O)C2CCN(C)CC2)CC2CN(CCc3c([nH]c4ccccc34)C(C(=O)OC)(c3cc4c(cc3OC)N(C)C3C(O)(C(=O)OC)C(OC(C)=O)C5(CC)C=CCN6CCC43C65)C2)C1` (centres unmarked) [Compound 148], the IC50 ([1]; Table 5) is reported as 4400 nM and the IC50 ([2]; Table 5) is reported as 5300 nM.
`CCC1(NC(=O)c2ccc3cccnc3c2)CC2CN(CCc3c([nH]c4ccccc34)C(C(=O)OC)(c3cc4c(cc3OC)N(C)C3C(O)(C(=O)OC)C(OC(C)=O)C5(CC)C=CCN6CCC43C65)C2)C1` (centres unmarked) [Compound 149] gave an IC50 ([1]; Table 6) of 0.7 nM and an IC50 ([2]; Table 6) of 0.6 nM.
For `CCC1(NC(=O)c2ccc3ncccc3c2)CC2CN(CCc3c([nH]c4ccccc34)C(C(=O)OC)(c3cc4c(cc3OC)N(C)C3C(O)(C(=O)OC)C(OC(C)=O)C5(CC)C=CCN6CCC43C65)C2)C1` (centres unmarked) [Compound 150], the IC50 ([1]; Table 6) was 0.6 nM and the IC50 ([2]; Table 6) was 0.6 nM.
For `CCC1(NC(=O)c2cnc3ccccc3c2)CC2CN(CCc3c([nH]c4ccccc34)C(C(=O)OC)(c3cc4c(cc3OC)N(C)C3C(O)(C(=O)OC)C(OC(C)=O)C5(CC)C=CCN6CCC43C65)C2)C1` (centres unmarked) [Compound 151], the IC50 ([1]; Table 6) was 0.6 nM and the IC50 ([2]; Table 6) was 0.7 nM.
